Measurements from patent publication US4000297A, “N-p-chlorobenzoyl tryptophane, salts and compositions thereof” (priority 1971, dated 1976).
Counter-ions that a name gives are not always drawn. Like-named read-outs stand apart in the source and are kept apart here.

Assays:
gastric secretion [1] = assay: Anti-secretive activity in the rat by gastric stimulus, oral; format: in vivo; conditions: oral (Table 1), read-out: Activity B: anti-secretive activity ED50
Description: *3 Anti-secretive activity in the rat by gastric stimulus, ED50 mg/k

[2] = Acute toxicity (DL50) in the mouse; format: in vivo; conditions: in vivo
Text: *1 DL50 in the mouse mg/kg iv.
Examples of differences between toxicity (DL50 in
the mouse) by intravenous administration and oral
administration in mg/kg. Variation in therapeutic

gastric secretion [3] = assay: Anti-secretive activity, oral (comparison of iv and oral therapeutic coefficient); format: in vivo; conditions: oral (Table 2)
Text: | *6 Anti-secretive activity ED50 oral | *7 Therapeutic coefficient oral

gastric secretion [4] = assay: Comparison of antisecretive activity, rats with tied pylorus, oral aqueous suspension; format: in vivo; conditions: oral; for ED50: Rattus norvegicus, po, read-out: Antisecretive activity (dose which reduces the gastric secretion by 50%)
Description: (*)The antisecretive activity is defined as the dose in mg/kg of body
weight of the animal, which reduces the gastric secretion by 50%. The
evaluation is effected by considering the decrease in quantity of secrete
gastric juice as compared with controls. Rats of an average weight of 200
± 20 grams are employed of which the lower part of the stomach at the
level of the pylorus is tied to collect the gastric juice during the
indicated periods. The preparations are administered orally in the form o

[5] = system: transit through the stomach and intestine; assay: Anti-spastic activity, vegetable carbon (charcoal) test, rate of transit through the stomach and intestine; format: in vivo, mice; conditions: for ED50: Mus musculus, 2 h; for Antispastic activity, in words: in vivo; for Ratio 3/2: anti-secretive ED50 / anti-spastic ED50 (Table 3)
Description: Particularly marked is the anti-spastic activity which the present compounds exercise on the entire digestive system. Measured in the mouse, using the vegetable carbon test (rate of transit through the stomach and intestine), this activity is in some cases comparatively greater than the anti-secretive activity (Table 3).
(*)The antispastic activity is measured in mice of an average weight of […]
± 3 g by administering a suspension of charcoal in gum arabic and
checking after two hours whether the charcoal has reached the initial
portion of the colon. In non-treated subjects the charcoal reaches this
transit of the charcoal. Evaluation of the results is effected as
ED50 in mg/kg body weight of the animal, i.e., the dose at which the […]

[6] = system: gastric lesions from Indomethacin; assay: Protective activity against gastric lesions due to Indomethacin; format: in vivo, rats; conditions: oral; for ED50: Rattus norvegicus, po, 4 h, read-out: Protective activity ED50
Description: The activity is defined as the dose in mg/kg of body weight to the animal, which prevents in 50% of the treated subjects arising of lesions due to Indomenthacin.
The protective preparations are administered orally in aqueous suspension.

gastric secretion [7] = assay: Anti-secretive activity in the rat with lig. pylorus, iv; format: in vivo; conditions: for Therapeutic coefficient iv. 2/3: DL50 iv / ED50 iv (Table 2)
Solubility = format: physicochemical; conditions: for Solubility in water: in words
[8] = Stability in conventional preservation tests and light sensitiveness; format: physicochemical; conditions: oral forms (capsules, tablets)
[9] = Tolerability in humans, prolonged oral administration; format: in vivo; conditions: several weeks, 500 to 1600 mg
[10] = rat, in vivo, po
[11] = dog, in vivo, po
[12] = iv (Table 1), read-out: DL50 value
[13] = oral (Table 2), read-out: DL50 oral
[14] = po, charcoal after two hours, orally (later Table 3), read-out: Antispastic activity ED50
[15] = Rattus norvegicus, iv, read-out: Activity A: anti-secretive activity ED50
[16] = Rattus norvegicus, iv, read-out: Anti-secretive activity ED50 i.v.
[17] = iv, iv (Table 1), read-out: DL50 value
[18] = mouse, vegetable carbon test (Table 3), read-out: Anti-spastic activity ED50
[19] = Rattus norvegicus, iv, read-out: Anti-secretive activity ED50
[20] = Rattus norvegicus, iv, i.v. (Table 2), read-out: Anti-secretive activity ED50 i.v.
[21] = rat with lig. pylorus, iv (Table 1), read-out: Activity A: anti-secretive activity ED50

Structure (SMILES) | ED50 (gastric secretion [1]) [mg/kg] | ED50 (gastric secretion [3]) [mg/kg] | Therapeutic coefficient oral (gastric secretion [3]) | ED50 (gastric secretion [4]; 2.5 h, 2.5 hrs) [mg/kg] | ED50 (gastric secretion [4]; 5 h, 5 hrs) [mg/kg] | ED50 (gastric secretion [4]; 10 h, 10 hrs) [mg/kg] | ED50 (gastric secretion [4]; 15 h, 15 hrs) [mg/kg] | ED50 [5, 14] [mg/kg] | ED50 ([6]; Indomethacin 16 mg/kg orally) [mg/kg] | ED50 (gastric secretion [7]; [15]) [mg/kg] | ED50 (gastric secretion [7]; [16]) [mg/kg] | Therapeutic coefficient iv. 2/3 (gastric secretion [7]; iv) | LD50 [2, 17] [mg/kg] | ED50 [5, 18] [mg/kg] | Ratio 3/2 [5] | also measured
Cc1ccc(C(=O)N[C@@H](Cc2c[nH]c3ccccc23)C(=O)O)cc1 [Ex.21 (CR510), N-p-toluyl-L-tryptophane] | 318 | 346 | 5.8 | 490 | 407 | 346 | 583 | 487 | 382 | 184 | 184 | 3.8 | – | – | – | LD50 [2, 12]: 700 mg/kg; LD50 [2, 13]: 2000 mg/kg
O=C(N[C@@H](Cc1c[nH]c2ccccc12)C(=O)O)c1ccc(Cl)cc1 [CR 501 calcium salt, N-p-chloro-benzoyl-L-tryptophane calcium salt] | – | – | – | – | – | – | – | – | – | – | – | – | – | – | – | Solubility in acetone (Solubility; acetone): soluble; Solubility in ethanol (Solubility; ethanol, listed as Example 53, calcium salt): soluble; Solubility in methanol (Solubility; methanol, listed as Example 53, calcium salt): soluble; Solubility in water (Solubility; listed as Example 53, calcium salt): Very slightly soluble; Antisecretive activity (dose which reduces the gastric secretion by 50%) (gastric secretion [4]; 2.5 hrs, calcium salt, 150 min): 210 mg/kg; Antisecretive activity (dose which reduces the gastric secretion by 50%) (gastric secretion [4]; 5 hrs, calcium salt, 300 min): 165 mg/kg; Antisecretive activity (dose which reduces the gastric secretion by 50%) (gastric secretion [4]; 10 hrs, calcium salt, 600 min): 142 mg/kg; Antisecretive activity (dose which reduces the gastric secretion by 50%) (gastric secretion [4]; 15 hrs, calcium salt, 900 min): 170 mg/kg; Antispastic activity ED50 ([5]; charcoal after two hours, orally (later Table 3), 120 min, calcium salt, 120 min): 210 mg/kg; Antispastic activity, in words ([5]; mouse, calcium salt): more particularly effective as antispastic; Protective activity ED50 ([6]; Indomethacin 16 mg/kg orally, 240 min, calcium salt): 145 mg/kg/os; Light sensitiveness [8]: absence of light sensitiveness; Stability on conventional preservation tests [8]: thorough stability; Side effects in humans [9]: does not lead to any specific side effect
O=C(N[C@@H](Cc1c[nH]c2ccccc12)C(=O)O)OCc1ccc(Cl)cc1 [Ex. 1 (CR449), N-p-chloro-carbobenzoxy-L-tryptophane] | 127 | 154 | 9.1 | 121 | 98 | 115 | 155 | – | 182 | 131 | 131 | 1.8 | 240 | 72 | 1.8 | LD50 ([2]; po, oral (Table 2), read-out: DL50 oral): 1410 mg/kg; ED50 (gastric secretion [7]; [19]): 131 mg/kg
O=C(N[C@@H](Cc1c[nH]c2ccccc12)C(=O)O)c1ccc(Cl)cc1 [Ex.18 (CR501), N-p-chloro-benzoyl-L-tryptophane] | 110 | 150 | 7.3 | 171 | 143 | 150 | – | 248 | 234 | – | – | 1.9 | – | 82 | 1.7 | Solubility in water (Solubility; listed as CR 501): water-insoluble; Solubility in water (Solubility; listed as CR501): insoluble in water; Acute and chronical toxicity [10]: without exhibiting any appreciable symptom of toxicity; LD50 [2, 12]: 263 mg/kg; LD50 [2, 13]: 1100 mg/kg; Start of antisecretive activity from administration (gastric secretion [4]): < 5 h; Antisecretive activity (dose which reduces the gastric secretion by 50%) (gastric secretion [4]; 15 hrs, 900 min): 361 mg/kg; Extent in time of antisecretive activity (gastric secretion [4]; with a gradual sinking): up to 15 hours; Antispastic activity, in words ([5]; mouse): active as antispastic; Protective activity against Indomethacin lesions, in words [6]: efficient activity in preventing gastric lesions; Acute and chronical toxicity [11]: without exhibiting any appreciable symptom of toxicity; ED50 (gastric secretion [7]; Rattus norvegicus, iv, compared with anti-spastic activity (Table 3), read-out: Anti-secretive activity ED50): 139 mg/kg; ED50 (gastric secretion [7]; [20]): 139 mg/kg; ED50 (gastric secretion [7]; [21]): 139 mg/kg
Cc1ccc(COC(=O)N[C@@H](Cc2c[nH]c3ccccc23)C(=O)O)cc1 [Ex. 9 (CR454), N-p-methyl-carbobenzoxy-L-tryptophane] | 125 | 268 | – | – | – | – | – | – | – | 187 | 166 | 1.9 | 320 | 120 | 1.6 | ED50 (gastric secretion [7]; [19]): 187 mg/kg
O=C(N[C@@H](Cc1c[nH]c2ccccc12)C(=O)O)OCc1ccc(Br)cc1 [Ex. 6 (CR451), N-p-bromo-carbobenzoxy-L-tryptophane] | 77 | 133 | – | 180 | 148 | – | 405 | 275 | 335 | 92.1 | 99 | 1.9 | 125 | – | – | LD50 ([2]; iv, iv (Table 2), read-out: DL50 iv): 185 mg/kg; Antisecretive activity (dose which reduces the gastric secretion by 50%) (gastric secretion [4]; 10 hrs, listed as CR 451 (Ex. 6), 600 min): 133 mg/kg
COc1ccc(COC(=O)N[C@@H](Cc2c[nH]c3ccccc23)C(=O)O)cc1 [Ex.32 (CR462), N-p-methoxy-carbobenzoxy-L-tryptophane] | 114 | 142 | – | – | – | – | – | – | – | – | – | 3.2 | 430 | – | – | ED50 (gastric secretion [7]; [20]): 133 mg/kg; ED50 (gastric secretion [7]; [21]): 146 mg/kg
